We go through one compound from patent US11696903B2, “Compounds and methods for scavenging dicarbonyl electrophiles” (VANDERBILT UNIVERSITY, priority 2019, dated 2023).

“Also recorded” adds a separate entry of the source.

The nature of data set [1]: EtHOBA concentration in the colon by LC/ESI/MS/MS. Type of data set: in vivo. Conditions: 1.5 and 3.7 mg/ml, after 6 days of treatment. Here is the method:
FIGS. 3A and 3B show data from C57BL/6 mice were treated or not with various concentrations of EtHOBA. (A) Body weight was assessed every day. (B) After 6 days, mice were euthanized and EtHOBA was measured in the colon. n=5 mice/group.
The present inventors analyzed the effect of various concentrations of EtHOBA and its bioavailability in control mice. […] After 6 days of treatment, EtHOBA concentrations in the colon were analyzed using liquid chromatography electrospray ionization tandem mass spectrometry (LC/EST/MS/MS).

Another data set relates to COX-2 activity. Put plainly: PGE2 production in A549 cell media (GC/MS) as measure of COX-2 activity. Type of data set: cell-based, human. Here is the method: (A). Scavengers were screened in RAW264.7 cells for the ability to decrease LG adduct formation on histones. Scavengers used were glucosamine (GA), 3-methoxysalicylamine (3-MoSA), pentylpyridoxamine (PPM), and 5-ethylsalicylamine (EtSA). Cells were stimulated to express COX-2, pretreated 45 min. with 500 μM scavenger or vehicle (H2O), and given 20 μM AA for 1 h before lysing and extracting histones. Histone proteins were analyzed by LC/ESI/MS/MS for LG-lysyl lactam adduct, n=2. (B) Stimulated A549 cells were pretreated with 30, 300, or 1000 μM EtSA prior to 1 h with 20 μM AA, and histones analyzed for LG-lysyl adduct. *, p<0.05 by one-way ANOVA followed by Dunnett's multiple comparisons post-test (n=3-5). (C). A549 cells were stimulated, pretreated 45 min. with 1000 μM EtSA or H2O vehicle, and given 20 μM AA for 1 h. Media was analyzed by GC/MS for PGE2 (n=3). There was no effect on PGE2 production at lower doses of EtSA (data not shown).
To stimulate COX-2 expression, A549 or RAW264.7 cells were treated overnight with 5 ng/mL IL-1B (A549) or 10 μg/mL LPS and 10 U/mL IFNγ (RAW264.7) in serum-free medium. When indicated, cells were pretreated with indomethacin, aldehyde scavengers (glucosamine, 3-MoSA, PPM or EtSA), or vehicle (ethanol for indomethacin, H2O for scavengers) for 45 min, and then given 20 μM arachidonic acid (AA) or DMSO vehicle for 1 h before lysing. […]

In data set [2] the test system is DNA-histone interaction (histone H4) in A549 cells. Put plainly: Salt fractionation of A549 nuclei, histone H4 solubility. The format is cell-based, human. Conditions: A549, 500 μM EtSA 45 min prior to 20 μM AA. How it is done: FIG. 14. LG-lysyl adduct formation on histone H4 decreases DNA-histone interaction. A549 cells were stimulated and given DMSO vehicle (C lanes) or 20 μM AA for 1 h (A lanes). A subgroup of cells was treated with 500 μM EtSA 45 min prior to adding AA (E lanes). Nuclei were extracted with 0.6, 0.9, or 1.2 M NaCl buffer, and the supernatant evaluated by Western blotting for histone H4. Shown is a representative Western blot (A) as well as the pooled results of 4 experiments (B). Different exposure times may have been used for the 0.9 M and 1.2 M bands. ***, p<0.001 by one-way ANOVA followed by Tukey's multiple comparisons post-test. NS, not significant.
60-80% confluent A549 cells were stimulated and treated with AA±500 μM EtSA before scraping cells in lysis media for nuclear isolation as above. After addition of Tritox X-100 and vortexing, 1.5 mL of each sample was aliquoted into an eppendorf and centrifuged to separate nuclei. Pellets were washed with PBS and all buffer removed. Nuclear pellets were resuspended in extraction buffer containing 0.6M, 0.9M, 1.2M or 1.5M NaCl (with 10 mM Tris, pH 7.5, 3 mM MgCl2, 0.5% NP-40, and protease inhibitor cocktail) and incubated 10 min on ice. […] This was sonicated, denatured at 95° C., and analyzed by SDS-PAGE and Western blotting, using Ponceau stain to visualize proteins and confirm equal loading, and anti-H4 antibody (Abeam, Cambridge, Mass.). […]

The subject of the next data set is H. pylori. Put plainly: Hp gastric colonization quantified by culture. Type of data set: in vivo, Helicobacter pylori. The following applies: INS-GAS mice, EtSA treatment. How it is done:
As discussed further in the Examples, the human gastric epithelial cell line AGS was infected with Hp PMSS1±10 mM EtSA. FVB/N insulin-gastrin (INS-GAS) mice and Mongolian gerbils were infected for 8 wk with Hp PMSS1 and 7.13, respectively; EtSA (0.75% in water) was given to animals beginning one wk post-infection. Lys-LG adducts, a marker of electrophile reactions, and EtSA were quantified by LC/EST/MS/MS. Histology was analyzed on H&E staining. DNA damage was evaluated by pH2AX staining. Hp colonization was quantified by culture. Mucosal immune responses were determined by RNA profiling and by Luminex assay. Mice were imaged using PET/CT with ^18F-FDG (inflammation marker) and ^18F—NaF (tumor marker).
The effect of a scavenger of levuglandins and other dicarbonyls was investigated in transgenic INS-GAS mice, which have high circulating gastrin levels and develop atrophic gastritis, and dysplasia and carcinoma with H. pylori infection. Mice were infected with H. pylori, and then EtSA was administered in drinking water, starting 7 days after infection. After 8 weeks, EtSA levels were measured in the gastric tissues of uninfected and infected mice receiving this compound (FIG. 16A). […] There was no dysplasia or carcinoma in uninfected mice (FIG. 16D).

For the compound `CCc1ccc(O)c(CN)c1` [EtHOBA, 5-ethyl-2-hydroxybenzylamine], the “EtHOBA concentrations in the colon” value in data set [1] is listed as “readily detected”. Besides, the PGE2 production result in the data set with COX-2 activity (A549, highest concentration tested (1000 μM EtSA)) was “without affecting”; with COX-2 activity (A549, lower doses of EtSA (data not shown)), “no effect”. Further, the “elution of histone H4 at lower salt concentrations after AA” value in data set [2] was “reversed”. For the same compound, in the data set on H. pylori, the Hp colonization result was “not reduced; also recorded: not affected”.
